Test results as given in patent US12180198B2, “Ribocil C antibiotics effective for Gram-negative pathogens” (THE BOARD OF TRUSTEES OF THE UNIVERSITY OF ILLINOIS, priority 2018, dated 2024).
Values after ≈ are worked out from the molar mass of the structure shown.

Columns and labels:
[1] = system: A. baumannii W41979; assay: MIC, micro-dilution broth method; type: cell-based; details: Acinetobacter baumannii; A. baumannii W41979; read-out: MIC
Method: (§1) Compounds were evaluated against a panel of Gram-positive and Gram-negative organisms. MIC values were determined using the micro-dilution broth method as outlined by the Clinical and Laboratory Standards Institute (clsi.org/) and are listed in […]. All experiments were performed in biological triplicate.
(§2) Antimicrobial susceptibility tests. Susceptibility testing was performed in biological triplicate, using the micro-dilution broth method as outlined by the Clinical and Laboratory Standards Institute. Bacteria were cultured with cation-adjusted Muller-Hinton broth (Sigma-Aldrich, Cat #90922) in round-bottom 96-well plates (Corning, Cat #3788). Human serum (pooled gender, 0.2 μm filtered) was purchased from BioIVT (Hicksville, NY).

[2] = system: E. cloacae ATCC 29893; assay: MIC, micro-dilution broth method; type: cell-based; details: Enterobacter cloacae, ATCC29893; E. cloacae ATCC 29893; read-out: MIC
Method: as §1, §2

[3] = system: E. coli AR-0493; assay: MIC, micro-dilution broth method; type: cell-based; details: Escherichia coli, AR0493; E. coli AR-0493; read-out: MIC
Method: as §1, §2

[4] = system: E. coli BAA-2340; assay: MIC, micro-dilution broth method; type: cell-based; details: Escherichia coli, BAA2340; E. coli BAA-2340; read-out: MIC
Method: as §1, §2

[5] = system: E. coli MG1655; assay: MIC, micro-dilution broth method; type: cell-based; details: Escherichia coli; E. coli MG1655; read-out: MIC
Method: as §1, §2

[6] = system: E. coli ΔrfaC JW3596; assay: MIC, micro-dilution broth method; type: cell-based; details: Escherichia coli
Method: as §1, §2

[7] = system: E. coli ΔtolC JW5503; assay: MIC, micro-dilution broth method; type: cell-based; details: Escherichia coli
Method: as §1, §2

[8] = system: K. pneumoniae S47889; assay: MIC, micro-dilution broth method; type: cell-based; details: Klebsiella pneumoniae; K. pneumoniae S47889; read-out: MIC
Method: as §1, §2

[9] = system: P. aeruginosa PA01; assay: MIC, micro-dilution broth method; type: cell-based; details: Pseudomonas aeruginosa; P. aeruginosa PA01; read-out: MIC
Method: as §1, §2

[10] = system: S. aureus ATCC 29213; assay: MIC, micro-dilution broth method; type: cell-based; details: Staphylococcus aureus, ATCC29213, S. aureus ATCC 29213; read-out: MIC
Method: as §1, §2

[11] = system: Gram-negative ESKAPE pathogens and E. coli; assay: MIC, micro-dilution broth method (text summary); type: cell-based; details: Gram-negatives with intact outer membranes
Method: FIG. 2. Antimicrobial activity of Debio-1452 and derivatives. MIC values were determined using the micro-dilution broth method as outlined by the Clinical and Laboratory Standards Institute (clsi.org/). All experiments were performed in biological triplicate.
as §2

[12] = biological target: E. coli FabI (Escherichia coli, UniProt P0AEK4); assay: In vitro FabI inhibition assay; type: biochemical; details: 20 nM enzyme
Sequence of E. coli FabI (P0AEK4 whole entry): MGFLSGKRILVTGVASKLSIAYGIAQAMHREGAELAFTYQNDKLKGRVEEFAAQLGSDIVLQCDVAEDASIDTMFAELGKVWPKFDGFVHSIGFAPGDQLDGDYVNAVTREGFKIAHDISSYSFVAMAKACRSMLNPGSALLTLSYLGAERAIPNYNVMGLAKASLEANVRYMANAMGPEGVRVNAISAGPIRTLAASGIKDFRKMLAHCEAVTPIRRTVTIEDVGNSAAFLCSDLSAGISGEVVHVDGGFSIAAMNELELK
Method: Expression and purification of E. coli FabI. E. coli BL21 (DE3) pLysS (Novagen) were transformed with pET15-ecFabI. Overnight culture (10 mL) in LB supplemented with 50 μg/mL ampicillin from single colony was diluted into 1 L LB+50 μg/mL ampicillin. Cells were grown at 37° C., 250 rpm until OD600 reached 0.8. Culture was cooled to 18° C. and induced with 0.5 mM IPTG for 18 h at 18° C. Cells were harvested by centrifugation (5,000×g, 10 min, 4° C.). Cell pellets were flash frozen and store at −20° C. pending purification. Frozen cell pellets were thawed on ice and resuspended (5 mL per gram wet pellet, typically 20-30 mL) with 0.5% CHAPS, 1 mM PMSF, 1 μg/mL leupeptin, 1 μg/mL pepstatin A, and 2 μg/mL aprotinin in binding buffer [20 mM Tris (pH 7.9), 500 mM NaCl, 5 mM imidazole]. Cells were lysed by sonication on ice (30%, 10 s pulse, 20 s rest, 5 min total). Lysate was clarified by centrifugation (35,000×g, 1 h, 4° C.) and filtration through 0.2 μm syringe filter. Lysate was incubated with 5 mL Co-NTA agarose (HisPur cobalt resin, Thermo-Fisher Scientific Cat #89965, pre-equilibrated with binding buffer) for 30 min at 4° C. with gentle rocking. Agarose-containing lysate was transferred to column and flow through discarded. Column was washed with 2 column volumes of binding buffer followed by 10 column volumes of wash buffer [20 mM Tris (pH 7.9), 500 mM NaCl, 60 mM imidazole]. Protein was eluted with 15 mL elution buffer [20 mM Tris (pH 7.9), 500 mM NaCl, 300 mM imidazole]. […] Protein concentration was determined by BCA assay (ThermoFisher Cat #23227).
In vitro FabI inhibition assay. […] Plate was placed in plate-reader (SpectraMax 190, Molecular Devices) under temperature control (25° C.), and temperature was allowed to equilibrate. […] After shaking for 5 s, reaction progress was monitored by absorbance at 340 nm every 15 s for 90 min. Linear portion of reaction progress curve was fit using plate-reader software (SoftMax Pro 7.0). Percent activity was calculated relative to DMSO-only and no-enzyme controls in each plate. […]

Cc1c(CN(C)C(=O)/C=C/c2cnc3c(c2)CC(NC(=O)OC(C)(C)C)C(=O)N3)oc2ccccc12 (stereo not drawn) [compound 8, tert-butyl(E)-(6-(3-(methyl((3-methylbenzofuran-2-yl)methyl)amino)-3-oxoprop-1-en-1-yl)-2-oxo-1,2,3,4-tetrahydro-1,8-naphthyridin-3-yl)carbamate]
MIC [1]: > 32 µg/mL
MIC [2]: > 32 µg/mL
MIC [3]: > 32 µg/mL
MIC [4]: > 32 µg/mL
MIC [5]: > 32 µg/mL
MIC [6]: 0.25 µg/mL (≈ 0.51 µM)
MIC [7]: 0.125 µg/mL (≈ 0.255 µM)
MIC [8]: > 32 µg/mL
MIC [9]: > 32 µg/mL
MIC [10]: 0.016 µg/mL (≈ 0.0326 µM)
activity (in words) [11]: no activity
inhibition of E. coli FabI in vitro (in words) [12]: potent FabI inhibitors
